Assay results reported in ChEMBL document CHEMBL1201862, “PubChem BioAssay data set” (2004).
Active and inactive are the calls of the source.

Experiments:
[1] = molecular target: Protein disulfide-isomerase (Homo sapiens, UniProt P07237); experiment: PDI inhibitors, insulin turbidity readout, confirmation, biochemical, dry powder samples, set 2 (AID 652146)
[2] = HepG2 cell cytotoxicity, dose response, cytotoxicity control, ATP luminescence, dry powder (AID 652118); assay type: functional, cell-based
[3] = Late stage counterscreen for inhibitors of Trypanosoma brucei methionyl tRNA synthetase (MetRS): Luminescence-based cell-based high throughput dose response assay to identify compounds that are cytotoxic to Jurkat human T lymphocyte cells.; assay type: functional
[4] = A375 melanoma cell cytotoxicity, dose response, counter-screen for MITF inhibitor project, CellTiter-Glo luminescence, dry powder, set 2 (AID 624489); assay type: functional, cell-based; conditions: A-375;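 further: actives are compounds lowering A375 viability meaning general cytotoxicity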
[5] = A375 melanoma cell viability loss, dose response, counter-screen for MITF inhibitor project, CellTiter-Glo luminescence, dry powder, set 4 (AID 624364); assay type: functional, cell-based; conditions: A-375;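 further: A375 melanoma cells are MITF independent so this is a counter screen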
[6] = molecular target: Potassium channel subfamily K member 3 (Homo sapiens, UniProt O14649); experiment: TASK1 (KCNK3) potassium channel inhibitors, SAR follow-up, CHO cells, FluxOR thallium flux (AID 652212); assay type: functional
[7] = molecular target: Potassium channel subfamily K member 9 (Homo sapiens, UniProt Q9NPC2); experiment: TASK3 (KCNK9) channel inhibitors, thallium flux, SAR follow-up, selectivity assay for TASK1 inhibitor project, cell-based, FluxOR thallium flux, concentration-response (AID 652211); assay type: functional;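 further: potency is for inhibitors of the channel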
[8] = molecular target: C-X-C chemokine receptor type 4 (Homo sapiens, UniProt P61073); experiment: SAR analysis of small molecule antagonists of the CXCR6 receptor using a CXCR4 receptor luminescent beta-arrestin counterscreen.; assay type: functional
[9] = molecular target: C-C chemokine receptor type 6 (Homo sapiens, UniProt P51684); experiment: SAR analysis of small molecule antagonists of the CXCR6 receptor using a CCR6 receptor luminescent beta-arrestin counterscreen.; assay type: functional
[10] = molecular target: NAD-dependent protein deacylase sirtuin-5, mitochondrial (Homo sapiens, UniProt Q9NXA8); experiment: SIRT5 deacylase inhibitors, dose response, biochemical, fluorescence imaging, cherry-pick, set 6 (AID 720597)
[11] = P. falciparum Dd2 blood-stage growth inhibition, dose response, SYBR Green fluorescence, erythrocytes, dry powder, set 2 (AID 1159574); assay type: functional, cell-based
[12] = TB: CFU replicating Measured in Microorganism System Using Imaging - 7108-05_Inhibitor_Dose_DryPowder_Activity_Set2.; assay type: functional
[13] = Dose-response inhibition of insulin secretion in a rat insulinoma line at 5 mM glucose (AID 1117331); assay type: functional, cell-based; conditions: INS-1E

Sequence of C-X-C chemokine receptor type 4 (P61073 whole entry): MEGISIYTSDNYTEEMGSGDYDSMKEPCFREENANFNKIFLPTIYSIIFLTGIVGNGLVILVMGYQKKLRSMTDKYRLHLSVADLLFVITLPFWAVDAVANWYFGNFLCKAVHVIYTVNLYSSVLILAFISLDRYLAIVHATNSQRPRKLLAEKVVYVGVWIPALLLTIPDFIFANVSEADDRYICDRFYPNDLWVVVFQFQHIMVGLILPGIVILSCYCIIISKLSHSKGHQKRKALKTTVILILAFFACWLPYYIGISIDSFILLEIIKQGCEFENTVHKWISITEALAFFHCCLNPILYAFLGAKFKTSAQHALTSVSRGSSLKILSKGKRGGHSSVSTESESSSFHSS
Sequence of NAD-dependent protein deacylase sirtuin-5, mitochondrial (Q9NXA8 whole entry): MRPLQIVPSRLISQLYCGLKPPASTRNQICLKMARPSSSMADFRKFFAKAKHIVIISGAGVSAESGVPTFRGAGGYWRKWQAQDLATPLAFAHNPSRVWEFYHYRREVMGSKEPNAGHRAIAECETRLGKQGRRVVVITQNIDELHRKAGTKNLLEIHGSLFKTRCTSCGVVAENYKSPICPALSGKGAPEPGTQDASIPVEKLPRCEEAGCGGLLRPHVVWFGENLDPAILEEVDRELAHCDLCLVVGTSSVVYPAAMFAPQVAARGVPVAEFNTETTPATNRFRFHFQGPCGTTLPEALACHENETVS
Sequence of Protein disulfide-isomerase (P07237 whole entry): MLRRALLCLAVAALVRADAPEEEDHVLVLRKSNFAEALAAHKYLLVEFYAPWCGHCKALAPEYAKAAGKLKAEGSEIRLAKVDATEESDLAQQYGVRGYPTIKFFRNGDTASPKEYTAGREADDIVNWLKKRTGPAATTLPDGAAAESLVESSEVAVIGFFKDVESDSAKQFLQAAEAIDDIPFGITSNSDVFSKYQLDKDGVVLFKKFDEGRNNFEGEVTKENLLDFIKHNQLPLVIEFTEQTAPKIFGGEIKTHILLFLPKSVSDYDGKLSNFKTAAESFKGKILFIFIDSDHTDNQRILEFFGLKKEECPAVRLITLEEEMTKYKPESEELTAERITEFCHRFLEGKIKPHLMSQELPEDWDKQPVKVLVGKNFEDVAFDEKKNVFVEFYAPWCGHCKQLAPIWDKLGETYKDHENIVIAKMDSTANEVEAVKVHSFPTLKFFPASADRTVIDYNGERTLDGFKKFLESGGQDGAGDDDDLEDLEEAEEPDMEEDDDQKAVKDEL
Sequence of C-C chemokine receptor type 6 (P51684 whole entry): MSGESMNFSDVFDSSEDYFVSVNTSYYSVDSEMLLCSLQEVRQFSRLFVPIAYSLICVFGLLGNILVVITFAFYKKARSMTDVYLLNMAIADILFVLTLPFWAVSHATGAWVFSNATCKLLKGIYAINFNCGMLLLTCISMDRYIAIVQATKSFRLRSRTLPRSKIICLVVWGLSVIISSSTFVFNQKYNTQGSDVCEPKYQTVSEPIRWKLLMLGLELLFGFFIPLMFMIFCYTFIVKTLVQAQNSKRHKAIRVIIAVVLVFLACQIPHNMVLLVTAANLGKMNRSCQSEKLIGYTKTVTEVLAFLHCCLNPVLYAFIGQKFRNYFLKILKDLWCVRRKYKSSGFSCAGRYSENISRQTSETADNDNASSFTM
Sequence of Potassium channel subfamily K member 3 (O14649 whole entry): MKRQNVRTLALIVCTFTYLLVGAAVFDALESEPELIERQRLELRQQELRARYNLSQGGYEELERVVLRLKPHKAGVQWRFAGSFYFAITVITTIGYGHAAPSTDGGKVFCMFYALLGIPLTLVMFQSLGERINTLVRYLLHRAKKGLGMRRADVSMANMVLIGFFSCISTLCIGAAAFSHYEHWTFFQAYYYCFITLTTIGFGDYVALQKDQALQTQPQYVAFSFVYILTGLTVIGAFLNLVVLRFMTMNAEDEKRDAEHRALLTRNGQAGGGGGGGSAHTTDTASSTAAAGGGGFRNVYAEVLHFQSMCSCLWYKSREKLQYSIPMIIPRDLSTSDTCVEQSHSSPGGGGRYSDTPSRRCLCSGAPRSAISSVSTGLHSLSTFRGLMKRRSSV
Sequence of Potassium channel subfamily K member 9 (Q9NPC2 whole entry): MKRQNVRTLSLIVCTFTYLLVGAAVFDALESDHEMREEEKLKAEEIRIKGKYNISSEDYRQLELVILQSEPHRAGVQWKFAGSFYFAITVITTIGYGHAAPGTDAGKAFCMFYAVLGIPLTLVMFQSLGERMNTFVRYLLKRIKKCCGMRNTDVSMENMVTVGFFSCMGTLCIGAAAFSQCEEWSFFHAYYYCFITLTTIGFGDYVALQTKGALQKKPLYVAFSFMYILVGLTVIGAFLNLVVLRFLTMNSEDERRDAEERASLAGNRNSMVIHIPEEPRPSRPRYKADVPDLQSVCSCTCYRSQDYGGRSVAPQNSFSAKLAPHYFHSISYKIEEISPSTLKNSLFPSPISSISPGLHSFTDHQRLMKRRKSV

## CCOC(=O)C1(CCOc2ccccc2)CCN(C(=O)OC(C)(C)C)CC1
[1]
  AC50: > 30 µM (inactive)
[2]
  AC50: 44.4 µM (active)

## O=C(NCc1nc2ccccc2[nH]1)C1=C[C@@H](c2ccc3c(c2)OCO3)C[C@@H](OCCCCO)O1
[3]
  IC50: > 83.3 µM (inactive)

## O=C1C(NS(=O)(=O)c2ccccc2)=C(N2CCOCC2)C(=O)c2ccccc21
[4]
  AC50: > 70 µM (inactive)
[5]
  AC50: > 70 µM (inactive)

## COc1ccccc1NC(=O)c1cccc(NC(=O)CC2CCCC2)c1
[6]
  IC50: 0.086 µM (active)
[7]
  IC50: 2.63 µM (active)

## COc1ccccc1NC(=O)CN1C2CCCC1CC(NC(=O)c1cc(OC)c(OC)c(OC)c1)C2 (stereo not drawn)
[8]
  IC50: > 79 µM (inactive)
[9]
  IC50: > 79 µM (inactive)

## Cc1ccc(S(=O)(=O)N(C)C[C@@H]2OCCCC[C@@H](C)Oc3ccc(NS(=O)(=O)c4ccc(Cl)cc4)cc3C(=O)N([C@@H](C)CO)C[C@H]2C)cc1
[10]
  AC50: > 30 µM (inactive)

## COc1ccc(S(=O)(=O)N(C)C[C@H]2OCc3ccccc3-c3c(n(C)c4ccccc34)C(=O)N([C@@H](C)CO)C[C@H]2C)cc1
[11]
  AC50: 5.13 µM (active)

## Cn1c(NC(=O)c2ccccc2)nc2c(F)cccc21
[12]
  AbsAC90: 160.65 µM

## CN1CCN2c3ccccc3Cc3ccccc3C2C1 (stereo not drawn) [MIANSERIN]
[13]
  IC50: > 11.1 µM (inactive)
